Measured values from paper PMC11579512, “Deoxybouvardin-glucoside induces apoptosis in non-small cell lung cancer cells by targeting EGFR/MET and AKT signaling pathway” (EXCLI Journal, 2024).

Assays:
Assay type in all cases: cell-based, human
caspase-3 = experiment: Immunoblot caspase-3 with NAC pretreatment, HCC827 and HCC827GR cells; conditions: for caspase3 protein Ratio: control = 1.00
Method: (§1) HaCaT cells were grown in DMEM, whereas HCC827 and HCC827GR cells were grown in RPMI 1640. All culture media were supplemented with FBS (10 %) and P/S (1 %), and the cells were grown at 37 °C in 5 % CO2.
(§2) Cells were lysed in RIPA buffer, and protein concentration was determined using a Bio-Rad DC Protein Assay kit (Bio-Rad, Hercules, CA, USA). Protein samples from the cell lysates were resolved by sodium dodecyl sulfate-polyacrylamide gel electrophoresis and then transferred onto polyvinylidene fluoride membranes. The membranes were blocked with 3 % or 5 % skim milk and then incubated at 4 °C overnight with the indicated primary antibodies, followed by the corresponding horseradish peroxidase-conjugated secondary antibodies at RT for 2 h. Protein bands were visualized using western blotting luminol reagent solution and ImageQuant LAS 500 (GE Healthcare, Uppsala, Sweden). The density of the bands was quantified using ImageJ software (NIH, Bethesda, MD, USA).

PARP = experiment: Immunoblot PARP with NAC pretreatment, HCC827 and HCC827GR cells; conditions: for PARP protein Ratio: control = 1.00
Method: as §1, §2

Bim = experiment: Immunoblot Bim in HCC827 and HCC827GR cells; conditions: for Bim protein Ratio: DBG 0 nM 0.47
Method: as §1, §2

p27 = experiment: Immunoblot p27 in HCC827 and HCC827GR cells
Method: as §1, §2

Bad = experiment: Immunoblot Bad in HCC827 and HCC827GR cells
Method: as §1, §2

p-MET = experiment: Immunoblot p-MET with NAC pretreatment, HCC827 and HCC827GR cells; conditions: for p-MET protein Ratio: control = 1.00
Method: as §1, §2

p-EGFR (Y1068) = experiment: Western blot p-EGFR (Y1068) in HCC827 and HCC827GR cells; conditions: DBG 3, 6, 12 nM, 48 h
Method: as §1, §2

Bcl-2 = experiment: Immunoblot Bcl-2 in HCC827 and HCC827GR cells; conditions: for BCl-2 protein Ratio: DBG 0 nM = 1.00
Method: as §1, §2

HCC827GR cells = experiment: Cell cycle distribution (Muse, PI), HCC827GR; conditions: 48 h
Method: as §1
Cell cycle distribution analysis was performed using a Muse™ Cell Cycle Kit (MCH100106, Merck Millipore, Billerica, MA) based on propidium iodide (PI) staining. The cells were collected, fixed in 70 % ethanol overnight at -20 °C, and then stained with a Muse™ Cell Cycle Reagent at RT for 30 min in the dark. The cell cycle distribution was measured using a Muse™ Cell Analyzer (Merck Millipore).

p-AKT (S473) = experiment: Western blot p-AKT (S473) in HCC827 and HCC827GR cells; conditions: DBG 3, 6, 12 nM, 48 h
Method: as §1, §2

p-MET (Y1234/1235) = experiment: Western blot p-MET (Y1234/1235) in HCC827 and HCC827GR cells; conditions: DBG 3, 6, 12 nM, 48 h
Method: as §1, §2

## COc1ccc(C[C@H]2C(=O)N[C@@H](C)C(=O)N(C)[C@H]3Cc4ccc(cc4)Oc4cc(ccc4O[C@@H]4O[C@H](CO)[C@@H](O)[C@H](O)[C@H]4O)C[C@@H](C(=O)N[C@H](C)C(=O)N[C@@H](C)C(=O)N2C)N(C)C3=O)cc1 [DBG, deoxybouvardin glucoside]
caspase-3; HCC827, DBG 12 nM, control 0.39
  caspase3 protein/actin: 0.07
caspase-3; HCC827, DBG 12 nM
  caspase3 protein Ratio: 0.18
caspase-3; HCC827, NAC 4 mM + DBG 12 nM, control 0.39
  caspase3 protein/actin: 0.60
caspase-3; HCC827, NAC 4 mM + DBG 12 nM
  caspase3 protein Ratio: 1.53
caspase-3; HCC827GR, DBG 12 nM, control 0.59
  caspase3 protein/actin: 0.24
caspase-3; HCC827GR, DBG 12 nM
  caspase3 protein Ratio: 0.41
caspase-3; HCC827GR, NAC 4 mM + DBG 12 nM, control 0.59
  caspase3 protein/actin: 0.45
caspase-3; HCC827GR, NAC 4 mM + DBG 12 nM
  caspase3 protein Ratio: 0.77
PARP; HCC827, DBG 12 nM, control 0.96
  PARP protein/actin: 0.09
PARP; HCC827, DBG 12 nM
  PARP protein Ratio: 0.09
PARP; HCC827, NAC 4 mM + DBG 12 nM, control 0.96
  PARP protein/actin: 1.09
PARP; HCC827, NAC 4 mM + DBG 12 nM
  PARP protein Ratio: 1.14
PARP; HCC827GR, DBG 12 nM, control 0.99
  PARP protein/actin: 0.21
PARP; HCC827GR, DBG 12 nM
  PARP protein Ratio: 0.22
PARP; HCC827GR, NAC 4 mM + DBG 12 nM, control 0.99
  PARP protein/actin: 0.81
PARP; HCC827GR, NAC 4 mM + DBG 12 nM
  PARP protein Ratio: 0.82
Bim; HCC827, DBG 3 nM, DBG 0 nM 0.53
  Bim protein/actin: 0.53
Bim; HCC827, DBG 3 nM, relative to DBG 12 nM = 1.00
  Bim protein Ratio: 0.48
Bim; HCC827, DBG 6 nM, DBG 0 nM 0.53
  Bim protein/actin: 0.73
Bim; HCC827, DBG 6 nM, relative to DBG 12 nM = 1.00
  Bim protein Ratio: 0.65
Bim; HCC827, DBG 12 nM (reference of the ratio, 1.00)
  Bim protein Ratio: 1.00
Bim; HCC827, DBG 12 nM, DBG 0 nM 0.53
  Bim protein/actin: 1.12
Bim; HCC827GR, DBG 3 nM, DBG 0 nM 0.15
  Bim protein/actin: 0.23
Bim; NSCLC cells, DBG
  level of Bim: increased
p27; DBG, 48 h
  level of p27: increasing p27
p27; HCC827, DBG 3 nM, DBG 0 nM 0.14
  p27 protein/actin: 0.14
p27; HCC827, DBG 3 nM, relative to DBG 12 nM = 1.00, DBG 0 nM 0.34
  p27 protein ratio: 0.33
p27; HCC827, DBG 6 nM, DBG 0 nM 0.14
  p27 protein/actin: 0.40
p27; HCC827, DBG 6 nM, relative to DBG 12 nM = 1.00, DBG 0 nM 0.34
  p27 protein ratio: 0.96
p27; HCC827, DBG 12 nM (set to 1.00), DBG 0 nM 0.34
  p27 protein ratio: 1.00
p27; HCC827, DBG 12 nM, DBG 0 nM 0.14
  p27 protein/actin: 0.42
p27; HCC827GR, DBG 3 nM, DBG 0 nM 0.06
  p27 protein/actin: 0.09
p27; HCC827GR, DBG 3 nM, relative to DBG 12 nM = 1.00, DBG 0 nM 0.08
  p27 protein ratio: 0.11
p27; HCC827GR, DBG 6 nM, DBG 0 nM 0.06
  p27 protein/actin: 0.69
p27; HCC827GR, DBG 6 nM, relative to DBG 12 nM = 1.00, DBG 0 nM 0.08
  p27 protein ratio: 0.90
p27; HCC827GR, DBG 12 nM (set to 1.00), DBG 0 nM 0.08
  p27 protein ratio: 1.00
p27; HCC827GR, DBG 12 nM, DBG 0 nM 0.06
  p27 protein/actin: 0.77
Bad; HCC827, DBG 3 nM, DBG 0 nM 0.16
  Bad protein/actin: 0.25
Bad; HCC827, DBG 3 nM, relative to DBG 12 nM = 1.00, DBG 0 nM 0.19
  Bad protein Ratio: 0.31
Bad; HCC827, DBG 6 nM, DBG 0 nM 0.16
  Bad protein/actin: 0.69
Bad; HCC827, DBG 6 nM, relative to DBG 12 nM = 1.00, DBG 0 nM 0.19
  Bad protein Ratio: 0.84
Bad; HCC827, DBG 12 nM (reference of the ratio, 1.00), DBG 0 nM 0.19
  Bad protein Ratio: 1.00
Bad; HCC827, DBG 12 nM, DBG 0 nM 0.16
  Bad protein/actin: 0.82
Bad; HCC827GR, DBG 3 nM, DBG 0 nM 0.28
  Bad protein/actin: 0.22
Bad; HCC827GR, DBG 3 nM, relative to DBG 12 nM = 1.00, DBG 0 nM 0.49
  Bad protein Ratio: 0.39
Bad; HCC827GR, DBG 6 nM, DBG 0 nM 0.28
  Bad protein/actin: 0.59
Bad; HCC827GR, DBG 6 nM, relative to DBG 12 nM = 1.00, DBG 0 nM 0.49
  Bad protein Ratio: 1.03
Bad; HCC827GR, DBG 12 nM (reference of the ratio, 1.00), DBG 0 nM 0.49
  Bad protein Ratio: 1.00
Bad; HCC827GR, DBG 12 nM, DBG 0 nM 0.28
  Bad protein/actin: 0.57
Bad; NSCLC cells, DBG
  level of Bad: increased
p-MET; HCC827, DBG 12 nM, control 1.17
  p-MET protein/actin: 0.27
p-MET; HCC827, DBG 12 nM
  p-MET protein Ratio: 0.23
p-MET; HCC827, NAC 4 mM + DBG 12 nM, control 1.17
  p-MET protein/actin: 0.40
p-MET; HCC827, NAC 4 mM + DBG 12 nM
  p-MET protein Ratio: 0.34
p-MET; HCC827GR, DBG 12 nM, control 1.14
  p-MET protein/actin: 0.44
p-MET; HCC827GR, DBG 12 nM
  p-MET protein Ratio: 0.39
p-MET; HCC827GR, NAC 4 mM + DBG 12 nM, control 1.14
  p-MET protein/actin: 0.21
p-MET; HCC827GR, NAC 4 mM + DBG 12 nM
  p-MET protein Ratio: 0.18
p-MET; NAC 4 mM pretreatment, DBG 48 h
  DBG-decreased phosphorylation of MET with NAC: did not change
p-EGFR (Y1068)
  phosphorylation level of EGFR: decreased
Bcl-2; HCC827, DBG 3 nM, DBG 0 nM 0.55
  BCl-2 protein/actin: 0.30
Bcl-2; HCC827, DBG 3 nM
  BCl-2 protein Ratio: 0.55
Bcl-2; HCC827, DBG 6 nM, DBG 0 nM 0.55
  BCl-2 protein/actin: 0.21
Bcl-2; HCC827, DBG 6 nM
  BCl-2 protein Ratio: 0.39
Bcl-2; HCC827, DBG 12 nM, DBG 0 nM 0.55
  BCl-2 protein/actin: 0.19
Bcl-2; HCC827, DBG 12 nM
  BCl-2 protein Ratio: 0.36
Bcl-2; HCC827GR, DBG 3 nM, DBG 0 nM 0.66
  BCl-2 protein/actin: 0.59
Bcl-2; HCC827GR, DBG 3 nM
  BCl-2 protein Ratio: 0.89
Bcl-2; HCC827GR, DBG 6 nM, DBG 0 nM 0.66
  BCl-2 protein/actin: 0.47
Bcl-2; HCC827GR, DBG 6 nM
  BCl-2 protein Ratio: 0.70
Bcl-2; HCC827GR, DBG 12 nM, DBG 0 nM 0.66
  BCl-2 protein/actin: 0.19
Bcl-2; HCC827GR, DBG 12 nM
  BCl-2 protein Ratio: 0.29
Bcl-2; NSCLC cells, DBG
  level of Bcl-2: downregulated
HCC827GR cells; DBG 3 nM, mean of 3 samples
  G0/G1 distribution: 53.10
  G2/M distribution: 37.67
  S distribution: 9.23
HCC827GR cells; DBG 3 nM, sample 1
  G0/G1 distribution: 51.80
  G2/M distribution: 39.10
  S distribution: 9.10
HCC827GR cells; DBG 3 nM, sample 2
  G0/G1 distribution: 53.80
  G2/M distribution: 36.60
  S distribution: 9.60
HCC827GR cells; DBG 3 nM, sample 3
  G0/G1 distribution: 53.70
  G2/M distribution: 37.30
  S distribution: 9.00
HCC827GR cells; DBG 6 nM, mean of 3 samples
  G0/G1 distribution: 54.77
  G2/M distribution: 36.33
  S distribution: 8.90
HCC827GR cells; DBG 6 nM, sample 1
  G0/G1 distribution: 54.30
  G2/M distribution: 36.50
  S distribution: 9.20
HCC827GR cells; DBG 6 nM, sample 2
  G0/G1 distribution: 53.10
  G2/M distribution: 37.80
  S distribution: 9.10
HCC827GR cells; DBG 6 nM, sample 3
  G0/G1 distribution: 56.90
  G2/M distribution: 34.70
  S distribution: 8.40
HCC827GR cells; DBG 12 nM, mean of 3 samples
  G0/G1 distribution: 56.93
  G2/M distribution: 34.27
  S distribution: 8.77
HCC827GR cells; DBG 12 nM, sample 1
  G0/G1 distribution: 57.50
  G2/M distribution: 33.40
  S distribution: 9.00
HCC827GR cells; DBG 12 nM, sample 2
  G0/G1 distribution: 56.20
  G2/M distribution: 35.10
  S distribution: 8.70
HCC827GR cells; DBG 12 nM, sample 3
  G0/G1 distribution: 57.10
  G2/M distribution: 34.30
  S distribution: 8.60
HCC827GR cells; concentration not given
  increase in proportion of cells at G1 phase: 2.36%
p-AKT (S473)
  phosphorylation level of AKT: decreased
p-MET (Y1234/1235)
  phosphorylation level of MET: decreased
